Measurements taken from patent publication US10920278B1, “Method to treat hypotension using vasopressin in certain genotypes” (Par Pharmaceutical, Inc., priority 2020, dated 2021).
Like-named read-outs stand apart in the source and are kept apart here.

Key:
[1] = cited from earlier work
[2] = Table 1 overview of parameters, infusion rate 0.03 units/minute, TT vs AA/AT genotype patients; type: in vivo, human; settings: for clearance / level at time molar: human, in vivo, 0.03 units/minute; for clearance: intravenous; for level at time molar: iv
[3] = Phase 1 open-label parallel-group PK study of IV vasopressin in healthy volunteers by LNPEP rs4869317 genotype; type: in vivo, human; settings: for Css (Max) / Css (Min) / level at 1 h / clearance: plasma; for level at 1 h / clearance: both sexes, human, iv; for level at 1 h: 200 uU/kg/min; for clearance: 200 μU/kg/min
Excerpt: The primary objective of this study was to evaluate differences in plasma clearance of vasopressin following IV administration in subjects with the TT genotype (rs4869317) versus those with the AA/AT genotype of the LNPEP gene in healthy volunteers. The secondary objective of the study was to assess the safety and tolerability of vasopressin in healthy volunteers. This was a Phase 1, open-label, 2-arm, parallel group, PK study in healthy volunteers. Approximately 48 healthy male and female subjects were enrolled at a single center in the United States to achieve at least 19 evaluable subjects per genotype group. The study comprised a screening period, a treatment period, and a follow-up phone call.
Subjects were screened for general good health over a 28-day period. Screening evaluations included medical history, physical examination, vital sign measurement, 12-lead electrocardiogram (ECG), and clinical laboratory testing (hematology, serum chemistry, and urinalysis). In addition, subjects were advised of the diet and medication restrictions and agreed to conform to them.
As a part of screening, the LNPEP genotype (TT or AA/AT) of the subjects was determined. The target enrollment was 24 subjects with the SNP rs4869317 (TT genotype). As the control group, 24 subjects with the AA/AT genotype were approximately matched with respect to age (±5 years), sex, race, BMI (±5%), and creatinine clearance (±10 mL/min). An effort was made to enroll at least 4 female subjects in each genotype group. Subjects were matched during screening and confirmed at check-in on Day-2. Subjects were enrolled for participation in 2 genotype groups of a minimum size of 24 subjects per genotype group in order to meet a minimum of 19 evaluable subjects per genotype group.
A dose of 200 μU/kg/min vasopressin (VASOSTRICT®) was used for this healthy volunteer PK study. The dose roughly corresponds to 0.012 units/minute for a 60 kg individual. This value is approximately equal to the starting dose of 0.01 units/minute in the VASOSTRICT® prescribing information. Clearance in healthy volunteers (15 mL/min/kg) at the vasopressin dose of 200 μU/kg/minute planned for study is within this range. Blood samples for PK analysis were drawn at baseline and 5, 15, 30, and 60 minutes following infusion. If TT genotyped subjects cleared vasopressin at a faster rate, patients of this genotype may benefit from an altered dosing regimen.
Subjects who meet all inclusion and none of the exclusion criteria received vasopressin continuous IV infusion at a constant rate of 200 μU/kg/min for 60 minutes on Day 1. To minimize orthostatic hypotension, subjects remained supine throughout the duration of the infusion. Eligible subjects were admitted to the clinical unit on Day-2, i.e., two days prior to dosing, to ensure adequate hydration and to standardize sodium intake. Vasopressin levels were also be determined during this period. Subjects remained confined until completion of all study procedures. While in the clinical unit, subjects were fed a standard diet with a dietary sodium intake limited to 2300 mg per day and drank no less than 1.0 to 1.5 L of water per day in addition to usual consumed beverages.
Study drug was administered on the morning of Day 1 under standard fasting conditions (minimum of 10-hour overnight fast). Passive telemetry monitoring occurred during the infusion. One hour prior to dosing, each subject was given an oral water load of 20 mL/kg to be consumed within 30 minutes. Thereafter, a second 20 mL/kg volume of water was made available. Subjects continued to drink water at regular intervals through the next 90 minutes (end of the infusion). Subjects were asked to pass urine spontaneously within 15 minutes prior to the start of infusion. The fasting restriction continued until the end of the infusion.
Subjects remained in the clinical unit after the end of the infusion and were discharged the following day (Day 2). […]

[4] = cited from earlier work; remark: listed apart in the source
[5] = septic shock patients, VASST trial, Nakada et al.; cited from earlier work
[6] = AA/AT (n=12) vs TT (n=12), 60 minute continuous IV infusion 200 μU/kg/min
[7] = AA/AT genotype healthy volunteers (12 subjects), 200 μU/kg/min continuous IV infusion for 60 minutes
[8] = TT compared with AA/AT genotype
[9] = TT genotype healthy volunteers (12 subjects), 200 μU/kg/min continuous IV infusion for 60 minutes

## NC(=O)CC[C@@H]1NC(=O)[C@H](Cc2ccccc2)NC(=O)[C@H](Cc2ccc(O)cc2)NC(=O)[C@@H](N)CSSC[C@@H](C(=O)N2CCC[C@H]2C(=O)N[C@@H](CCCN=C(N)N)C(=O)NCC(N)=O)NC(=O)[C@H](CC(N)=O)NC1=O [vasopressin, Cyclo (1-6) L-Cysteinyl-L-Tyrosyl-L-Phenylalanyl-L-Glutaminyl-L-Asparaginyl-L-Cysteinyl-L-Prolyl-L-Arginyl-L-Glycinamide]
[1]; septic shock patients who received vasopressin, Anantasit et al.
  rates of serious adverse events in AA genotype patients (in words): significantly higher rates of serious adverse events
[1]; septic shock patients, Anantasit et al. FIG. 2
  AVP blood levels, TT/TA vs AA genotype (in words): statistically significant higher AVP blood levels
[2]
  % change in the pharmacokinetic parameters in AA/AT genotype patients vs. TT genotype patients: <33%
  % increase in clearance in AA/AT genotype patients vs. TT genotype patients: ≥46%
[2]; read-out: Clearance in AA/AT genotype patients
  clearance: 28.7 mL/min/kg
[2]; read-out: Clearance in TT genotype patients
  clearance: 19.7 mL/min/kg
[2]; read-out: Concentration at steady state in AA/AT genotype patients
  level at time molar: 3.17 pM
[2]; read-out: Concentration at steady state in TT genotype patients
  level at time molar: 4.7 pM
[3]; [6]
  higher plasma clearance in AA/AT than TT rs4869317 genotype: 25.5%
  lower steady state concentration in AA/AT than TT rs4869317 genotype: 21.42%
[3]; [7]
  Css (Max): 0.0414 ng/mL
  Css (Min): 0.0101 ng/mL
[3]; [8]
  vasopressin clearance, TT vs AA/AT genotyped patients (in words): lower vasopressin clearance
  vasopressin plasma concentrations, TT vs AA/AT genotyped patients (in words): higher vasopressin plasma concentrations
[3]; [9]
  Css (Max): 0.0861 ng/mL
  Css (Min): 0.0171 ng/mL
[3]; TT vs AA/AT genotype
  mean clearance in TT patients less than that of AA/AT patients: about 20%
  mean steady state plasma concentration in TT patients higher than that of AA/AT patients: about 27.4%
[3]; AA/AT genotype healthy volunteers (12 subjects), 200 μU/kg/min continuous IV infusion for 60 minutes, read-out: Css (Mean), concentration at steady state
  level at 1 h: 0.025 ng/mL
[3]; AA/AT genotype healthy volunteers (12 subjects), 200 μU/kg/min continuous IV infusion for 60 minutes, read-out: Css (Median)
  level at 1 h: 0.0251 ng/mL
[3]; AA/AT rs4869317 genotype (n = 12), 60 minute continuous IV infusion 200 μU/kg/min, read-out: Steady State Concentration at 60 minutes (Css)
  level at 1 h: 0.025 ng/mL
[3]; TT genotype healthy volunteers (12 subjects), 200 μU/kg/min continuous IV infusion for 60 minutes, read-out: Css (Mean), concentration at steady state
  level at 1 h: 0.0319 ng/mL
[3]; TT genotype healthy volunteers (12 subjects), 200 μU/kg/min continuous IV infusion for 60 minutes, read-out: Css (Median)
  level at 1 h: 0.0271 ng/mL
[3]; TT rs4869317 genotype (n = 12), 60 minute continuous IV infusion 200 μU/kg/min, read-out: Steady State Concentration at 60 minutes (Css)
  level at 1 h: 0.0319 ng/mL
[3]; AA/AT genotype healthy volunteers (12 subjects), 200 μU/kg/min continuous IV infusion for 60 minutes, read-out: CL (Max)
  clearance: 37.3 mL/min/kg
[3]; AA/AT genotype healthy volunteers (12 subjects), 200 μU/kg/min continuous IV infusion for 60 minutes, read-out: CL (Mean)
  clearance: 17.4 mL/min/kg
[3]; AA/AT genotype healthy volunteers (12 subjects), 200 μU/kg/min continuous IV infusion for 60 minutes, read-out: CL (Median)
  clearance: 15 mL/min/kg
[3]; AA/AT genotype healthy volunteers (12 subjects), 200 μU/kg/min continuous IV infusion for 60 minutes, read-out: CL (Min)
  clearance: 9.1 mL/min/kg
[3]; AA/AT rs4869317 genotype (n = 12), 60 minute continuous IV infusion 200 μU/kg/min, read-out: Total Plasma Clearance (CL) Value
  clearance: 17.4 mL/min/kg
[3]; TT genotype healthy volunteers (12 subjects), 200 μU/kg/min continuous IV infusion for 60 minutes, read-out: CL (Max)
  clearance: 22 mL/min/kg
[3]; TT genotype healthy volunteers (12 subjects), 200 μU/kg/min continuous IV infusion for 60 minutes, read-out: CL (Mean)
  clearance: 13.8 mL/min/kg
[3]; TT genotype healthy volunteers (12 subjects), 200 μU/kg/min continuous IV infusion for 60 minutes, read-out: CL (Median)
  clearance: 14 mL/min/kg
[3]; TT genotype healthy volunteers (12 subjects), 200 μU/kg/min continuous IV infusion for 60 minutes, read-out: CL (Min)
  clearance: 4.4 mL/min/kg
[3]; TT rs4869317 genotype (n = 12), 60 minute continuous IV infusion 200 μU/kg/min, read-out: Total Plasma Clearance (CL) Value
  clearance: 13.8 mL/min/kg
[4]; VASOSTRICT prescribing information 2019
  dose excreted unchanged in urine: about 6%
[4]; VASOSTRICT prescribing information, at these levels
  apparent half-life: < 10 min
[4]; vasopressin dose of 200 μU/kg/minute
  Clearance in healthy volunteers: 15 mL/min/kg
[5]
  vasopressin clearance, TT vs AA or AT genotyped patients (in words): increase in vasopressin clearance
